Here are results for seven compounds from EP4029374A1, “NITROGEN CONTAINING SURFACTANTS FOR AGRICULTURAL USE” (Nouryon Chemicals International B.V., priority 2021, dated 2022).

Data set [1] can be described thus: Solubility of prior art betaine surfactants in concentrated glyphosate salt compositions. The class given is physicochemical. An excerpt:
WO2000038523 (Huntsman, US6500784, US6653257, EP1139761) discloses an amphoteric surfactant with the structure RCONH(CH2)n N^+R^12CH2COO- wherein R1 is alkyl or hydroxyl alkyl group with C1 to C4 and n = 2 - 4, and discloses a betaine with the structure R R^12N^+CH2COO- wherein R1 is alkyl or hydroxyl alkyl group with C1 to C4. The amphoterics disclosed there mainly functioned as a co-surfactant to solubilize a ether carboxylate in to concentrated glyphosate systems. In the context of the document, there was no mention of bioefficacy of betaines or other amphoteric surfactants by themselves. […] However, without proper testing of individual surfactant, it is not possible to determine whether the effect seen in the mixture of three surfactants comes from the claimed surfactant or the other two surfactants. Moreover, no actual bioefficacy data and especially no data are provided on the degree of "overall kill" provided in the absence of surfactants and in the presence of surfactants; without such data it is not possible to determine whether or not the claimed alkyl amido betaine was effective in enhancing herbicidal activity of glyphosate under the conditions of the test reported. This patent requires Na ion to be < 0.035% for the glyphosate formulation to be stable. Moreover, it used only IPA-glyphosate as examples. It is only recently known that many soluble surfactants in IPA-glyphosate are not soluble in concentrated K or NH4 glyphosate formulations. […] Since stearyl dimethylamidopropyl betaine itself had poor solubility in concentrated potassium glyphosate system, it is expected that the solubility of stearyl dimethylamidopropyl betaine plus ether carboxylate would be even worst in the concentrated potassium glyphosate system. Therefore, the claimed formulation in claim 1 in the document may not be stable, that is not useful, in a concentrated K glyphosate system.
US 20050170965 also indicates the aqueous glyphosate formulation is stable on storage. However, it is only recently known that many stable surfactants in IPA-glyphosate are not soluble in concentrated K or NH4 glyphosate formulations. Tests indicate that a composition of 360 g ae/l di-ammonium glyphosate could not dissolve 5.4% coco dimethyl betaine and a composition of 480 g ae/l potassium glyphosate could not dissolve 5.4% coco dimethylamidopropyl betaine. Since coco dimethyl betaine and coco dimethylamidopropyl betaine had poor solubility in concentrated potassium and di-ammonium glyphosate systems, it is expected that the claimed formulation in claim 16 of the document may not be stable in concentrated K or NH4 glyphosate systems. […]

For another data set, the system named is wheat. Briefly: Glyphosate formulation trial on wheat (Example 5). In kind it is in vivo. Conditions: 168 g ae/ha; glyphosate to surfactant ratio 3 : 1; picture taken at 21DAT (FIG. 13). An excerpt:
Cocoamine-6EO betaine was compared in the same trial with tallowamine-15EO as the positive control and the surfactant-free sample as negative control in glyphosate formulations. Glyphosate to surfactant ratio was 3 : 1.
This can be seen from the picture at FIG. 13, taken at 21DAT.

The subject of the next data set is morning glory; wheat. As to the kind of experiment: Green house trial of glyphosate formulations, % Control (Example 3). The class given is in vivo. Conditions: 930, 465 and 233 g ae/ha; 28 DAT; compared with glyphosate formulation without surfactant; result in words (FIGS. 9-10). An excerpt:
Glyphosate formulation containing oleylamphopolycarboxy glycinate (Na salt) was compared in a green house trial with glyphosate formulation containing tallowamine-10EO (as positive control) and glyphosate alone in terms of % Control. Three glyphosate rates were used, 930 g ae/ha, 465 gae/ha, and 233 g ae/ha.
The results are plotted in FIGS. 9-10.

For data set [2], the system named is morning glory (IPOHE, a broad leaf week) and winter wheat (TRZAW, a narrow leaf grass). As to the kind of experiment: Greenhouse spray of concentrated glyphosate samples, % control at 28 DAT (Example 2). The class given is in vivo. Conditions: glyphosate : surfactant 13:1, 489 and 978 g ae/H, result in words (FIGS. 7-8). The procedure:
Table. 3 Studied glyphosate formulations using various surfactants
The concentrated glyphosate samples were diluted to two glyphosate rates and sprayed in a green house so that the final glyphosate rates of the spray solutions were 489 and 978 g ae/H. Three samples at two rates equals six treatments that were sprayed on each of two species, morning glory (IPOHE, a broad leaf week) and winter wheat (TRZAW, a narrow leaf grass). […]
Higher ratio means lower surfactant concentration. A ratio of 13:1 means the sample, at the same glyphosate concentration, has 4.3 times less surfactant than a sample with a ratio of 3:1.
Sample A (glyphosate with added tallowamine-15EO) served as a positive control. Sample B containing only glyphosate without added surfactant served as a negative control.
FIGS. 7-8 illustrates the % control results at 28 DAT.

A value given as a limit tells only on which side of the number the result lay.

As for `CCCCCCCCCCCCCCCCCC(=O)NCCC[N+](C)(C)CC(=O)[O-]` [stearyl dimethylamidopropyl betaine], in data set [1] (in a composition of 51.3% potassium glyphosate), the surfactant solubility was under 1.8%.

Turning to “Ethoxylated cocoamine (6EO) betaine [cocoamine-6EO betaine]”, in the data set with wheat, the control to wheat entry was “excellent control”.

As for coco dimethyl betaine, the surfactant solubility in data set [1] (in a composition of 360 g ae/l di-ammonium glyphosate) is on record as under 5.4%.

As for coco dimethylamidopropyl betaine, the surfactant solubility in data set [1] (in a composition of 360 g ae/l potassium glyphosate) was under 80 g/L; in data set [1] (in a composition of 480 g ae/l potassium glyphosate), under 5.4%.

With “oleylamphopolycarboxy glycinate (Na salt)”, in the data set with morning glory; wheat, the glyphosate efficacy result is “enhanced glyphosate efficacy”.

tallow diamine trimethyl di-betaine: the glyphosate bioefficacy entry in data set [2] is “enhanced glyphosate bioefficacy even at very low rate”.

Consider tallowamine-15EO, for which, in the data set on wheat, the control to wheat result is given as “excellent control”.
